Experimental data published in patent US20130190399A1, “Synthesis and use of omega-3 and omega 6 very long chain polyunsaturated fatty acids (VLC-PUFA)” (MARTEK BIOSCIENCES CORPORATION, priority 2009, published 2013).

Key:
Format in all cases: cell-based, rat
[1] = system: primary hippocampal neurons; assay: Glutamate neurotoxicity, cell death (propidium iodide) after VLC-PUFA pretreatment; conditions: for IC50: Rattus norvegicus, Hippocampal neuron, 48 h pretreatment, L-glutamic acid 50 μM 60 min, assayed 24 h later, read-out: half-maximal inhibitory concentration (IC50), inhibition of cell death due to glutamate exposure; for concentrations at which cell death due to glutamate exposure was significantly inhibited: tested 0.1-30 μM, ANOVA/Tukey vs injured vehicle control, p<0.05
Procedure: (§1) Primary hippocampal neurons were harvested from embryonic day 17-18 rat fetuses using a modified version of previously described protocols (Banker and Cowan, 1977; Brewer et al., 1993) that preferentially select for neuronal growth over glial growth (Brewer, 1997). Pregnant dams were anesthetized via isoflurane on gestational day 18, and the rat fetuses were harvested by Cesarean section. Brains were removed and placed in ice-cold (4° C.) Hibernate EB (Brain Bits, Inc., Springfield, Il, USA) until all of the hippocampi were dissected. During the dissection, brain tissue was kept on an ice-cold block in Hibernate E solution. Dissected hippocampal tissue was washed once in room-temperature Hibernate E (without calcium, Brain Bits, Inc.) to remove divalent cations, and then incubated at 37° C. in a solution consisting of 0.17% trypsin in Hybernate E (without calcium) for 10 minutes. The tissue was subsequently washed once with ice-cold Hybernate E (without calcium) containing 15% fetal bovine serum (Atlas Biologicals, Fort Collins, Colo., USA) and then dissociated by trituration in the same media. Dispersed cell suspensions were centrifuged for 2 minutes at 200 g at 4° C., and resuspended in ice-cold Neurobasal medium (Invitrogen, Carlsbad, Calif., USA) supplemented with 1×B27 (Invitrogen), 100 μg/ml penicillin-streptomycin (Invitrogen), 0.5 mM L-glutamine (Invitrogen) and 0.025 mM L-glutamate (Sigma, St. Louis, Mo., USA). Viable cell number and concentration were determined by trypan blue exclusion and counted using an automated cell counter (Countess, Invitrogen). Cell suspensions were diluted in warm Neurobasal/B27 media and plated at a density of 30,000 cells per well in 96-well plates (Falcon Optilux plates, BD Biosciences, Bedford, Mass., USA) coated with laminin (Sigma) and poly-D-lysine (Sigma). Cultures were maintained in a temperature- (37° C.), humidity- (−100%), and gas- (5% CO2, 9% O2) controlled incubator. Half of the media was removed and replaced with fresh media every other day. All cultures were maintained for 3 days in vitro (DIV) in glutamate-containing media and then maintained an additional 7 DIV (glutamate neurotoxicity experiments) or 8 DIV (hypoxia) in Neurobasal/B27 media without glutamate.
(§2) Very long-chain polyunsaturated fatty acids (VLCPUFAs; 34:6n3, 34:5n3, 28:6n3, 28:5n3, and 28:4n6) were obtained as the free fatty acid and were stored at −20° C. until use. Each VLC-PUFA was dissolved in methanol to an initial concentration of 100 mM and then diluted serially in methanol to obtain 1000× stocks for each concentration tested. These were diluted further in media to obtain the appropriate concentration within the culture wells (final concentrations of 30 μM, 10 μM, 3 μM, 1 μM, 0.3 μM, and 0.1 μM). Controls received methanol similarly diluted in media (final concentration 0.1%). The VLC-PUFAs were added to the cultures 48 hours prior to glutamate insult or hypoxia exposure (described below), and a 50% media change occurred immediately prior to hypoxia exposure or immediately following glutamate exposure.
Cultures were treated with L-glutamic acid (50 μM, pH 7.0) for 60 minutes followed by a complete media change containing the appropriate concentrations of VLC-PUFAs. Cells were assayed for viability and mitochondrial health 24 hours after the glutamate treatment. […]

[2] = system: primary hippocampal neurons; assay: Mitochondrial health (TMRE) after glutamate-induced neurotoxicity; conditions: for EC50: Rattus norvegicus, Hippocampal neuron, 48 h pretreatment, L-glutamic acid 50 μM 60 min, assayed 24 h later, read-out: half-maximal effective concentration (EC50), increase of mitochondrial health after glutamate; for concentrations at which mitochondrial health after glutamate was significantly increased: tested 0.1-30 μM, ANOVA/Tukey vs injured vehicle control
Procedure: as §1, §2
Cultures were treated with L-glutamic acid (50 μM, pH 7.0) for 60 minutes followed by a complete media change containing the appropriate concentrations of VLC-PUFAs. Cells were assayed for viability and mitochondrial health 24 hours after the glutamate treatment.
Following glutamate exposure or hypoxia, cultures were aspirated with a 96-well plate washer (BioTek, Winooski, Vt., USA) and incubated for 15 minutes at 37° C. with phenol-free Neurobasal media (Invitrogen) containing one of two dye mixtures: 1) Hoechst dye (1:2000 of a 10 μg/ml solution, Invitrogen) and propidium iodide (PI; 1:500 of a 1 μg/ml solution; Invitrogen), or 2) Hoechst dye and tetramethylrhodamine ethyl ester (TMRE; 100 nM; Invitrogen). These dyes identify total cells (Hoechst), dying or dead cells (PI), and functional mitochondria (TMRE). […]

[3] = system: primary hippocampal neurons; assay: Hypoxia, cell death (propidium iodide) after VLC-PUFA pretreatment; conditions: 48 h hypoxia, O2 ≦0.3%, tested 0.1-30 μM
Procedure: as §1, with “All cultures were maintained for 3 days in vitro (DIV) in glutamate-containing media and then maintained an additional 7 DIV (glutamate neurotoxicity experiments) or 8 DIV (hypoxia) in Neurobasal/B27 media without glutamate.” left out

[4] = system: primary hippocampal neurons; assay: Mitochondrial health (TMRE) after hypoxia; conditions: 48 h hypoxia, O2 ≦0.3%; tested 0.1-30 μM
Procedure: Primary hippocampal neurons were harvested from embryonic day 17-18 rat fetuses using a modified version of previously described protocols (Banker and Cowan, 1977; Brewer et al., 1993) that preferentially select for neuronal growth over glial growth (Brewer, 1997). Pregnant dams were anesthetized via isoflurane on gestational day 18, and the rat fetuses were harvested by Cesarean section. Brains were removed and placed in ice-cold (4° C.) Hibernate EB (Brain Bits, Inc., Springfield, Il, USA) until all of the hippocampi were dissected. During the dissection, brain tissue was kept on an ice-cold block in Hibernate E solution. Dissected hippocampal tissue was washed once in room-temperature Hibernate E (without calcium, Brain Bits, Inc.) to remove divalent cations, and then incubated at 37° C. in a solution consisting of 0.17% trypsin in Hybernate E (without calcium) for 10 minutes. The tissue was subsequently washed once with ice-cold Hybernate E (without calcium) containing 15% fetal bovine serum (Atlas Biologicals, Fort Collins, Colo., USA) and then dissociated by trituration in the same media. […] Viable cell number and concentration were determined by trypan blue exclusion and counted using an automated cell counter (Countess, Invitrogen). […]

| Compound | IC50 [1] [nM] | concentrations at which cell death due to glutamate exposure was significantly inhibited [1] [µM] | EC50 [2] [nM] | concentrations at which mitochondrial health after glutamate was significantly increased [2] [µM] | effect on hypoxia-induced cell death (in words) [3] | concentrations at which cell death due to hypoxia was significantly inhibited ([3]; 48 h pretreatment) [µM] | effect on mitochondrial health after hypoxia (in words) [4] |
| --- | --- | --- | --- | --- | --- | --- | --- |
| CC/C=C\C/C=C\C/C=C\C/C=C\C/C=C\C/C=C\CCCCCCCCC(=O)O [28:6n3] | 210 | ≥ 0.3 | 170 | ≥ 3.0 | did not inhibit hypoxia-induced cell death at any concentration tested |  |  |
| CC/C=C\C/C=C\C/C=C\C/C=C\C/C=C\CCCCCCCCCCCCCCCCCC(=O)O [34:5n3] | 690 |  | 680 | 3.0 | exhibited a main effect of treatment, but only one concentration (0.3 μM) approached a significant difference when compared to controls |  |  |
| CC/C=C\C/C=C\C/C=C\C/C=C\C/C=C\C/C=C\CCCCCCCCCCCCCCC(=O)O [34:6n3] | 1070 | ≥ 3.0 | 250 | ≥ 0.3 |  | 1.0 | did not significantly alter mitochondrial health at the concentrations tested |
